From patent US5597829A, “Lactone stable formulation of camptothecin and methods for uses thereof” (priority 1994, dated 1997)
Entries after “also recorded” stand apart in the source; their conditions may differ. Where two headings read alike, the source gives them in different places.

How the values were obtained:
[1] = Phase I pharmacokinetics: conversion of CPT-11 into HECPT; format: in vivo, human; conditions: per/mg basis, from mean peak plasma concentrations
[2] = cited from earlier work
[3] = tested on: xenografts of human tumors; conditions: nude mice; cited from earlier work
[4] = mice; cited from earlier work
[5] = cited from earlier work; remark: listed apart in the source
[6] = cited from earlier work; remark: listed apart in the source
[7] = cited from earlier work; remark: listed apart in the source
[8] = similar solutions; cited from earlier work
LD1210 leukemia = conditions: 10-100 mg/kg intraperitoneally; cited from earlier work
[9] = tested on: topoisomerase I in P388 cells; conditions: cited from earlier work
MOLT3 cells = conditions: cited from earlier work
P388 tumor = conditions: intermittent bolus (days 1, 5, and 9), i.p.; cited from earlier work
[10] = Masuda et al, refractory or relapsed small cell lung cancer, 100 mg/m^2 weekly
[11] = Negoro et al, small cell lung cancer, 100 mg/m^2 weekly, 41 pts
[12] = Shimada et al, colon cancer, 100 mg/m^2 /week or 150 mg/m^2 /Q 2 wks
[13] = Takeuchi et al, cervical cancer, 69 pts

## CCc1c2c(nc3ccc(OC(=O)N4CCC(N5CCCCC5)CC4)cc13)-c1cc3c(c(=O)n1C2)COC(=O)[C@]3(O)CC [CPT-11, 7-Ethyl-10-[4-(1-piperidino)-1-piperidino]Carbonyloxy-Camptothecin]
[1]
  administered CPT-11 converted into HECPT: 1.5% to 9
[2]; Clavel et al, 90 min QDx3 Q21 days, 115 mg/m^2 /d (33-115), 37 pts
  Toxicity (* dose limiting): Neutropenia*; also recorded: diarrhea; also recorded: nausea; also recorded: vomiting; also recorded: alopecia
[2]; Clavel et al, Breast, 37 pts
  partial responses (PR): 1 PR
[2]; Clavel et al, Mesothelioma, 37 pts
  partial responses (PR): 1 PR
[2]; Culine et al, 90 min Q21 days, 150 mg/m^2 /wk (50-150), 59 pts
  Toxicity (* dose limiting): Neutropenia*; also recorded: diarrhea*; also recorded: vomiting; also recorded: alopecia; also recorded: fatigue; also recorded: stomatitis
[2]; Culine et al, cervix, 59 pts
  partial responses (PR): 1 PR
[2]; Culine et al, esophagus, 59 pts
  partial responses (PR): 1 PR
[2]; Culine et al, ovarian, 59 pts
  partial responses (PR): 1 PR
[2]; Culine et al, renal, 59 pts
  partial responses (PR): 1 PR
[2]; Negoro et al, 30 min infusion weekly, 100 mg/m^2 (50-150), 17 pts
  Toxicity (* dose limiting): Neutropenia* and Diarrhea* and N/V and alopecia and liver
[2]; Negoro et al, NS CLC, 17 pts
  partial responses (PR): 2 PRs
[2]; Ohe et al, 36 pts
  responses by tumor type: None
[2]; Ohe et al, 120 hr CI Q3 wks, 40 mg/m^2 /d (5-40), 36 pts
  Toxicity (* dose limiting): Diarrhea*; also recorded: nausea; also recorded: vomiting; also recorded: thrombocytopenia; also recorded: anemia; also recorded: liver
[2]; Phase I and Phase II trials
  major reported, dose-limiting toxicities: Neutropenia and diarrhea
[2]; Rothenberg et al, Colon Ca, 32 pts
  partial responses (PR): 2 PRs
[2]; Rothenberg et al, QWx4 Q42 days, 180 mg/m^2 /wk (50-180), 32 pts
  Toxicity (* dose limiting): Diarrhea*; also recorded: Neutropenia; also recorded: nausea; also recorded: vomiting; also recorded: alopecia
[2]; Rowinsky et al, 90 min infusion Q21 day, 240 mg/m^2 (100-345), 32 pts
  Toxicity (* dose limiting): Neutropenia* and vomiting and diarrhea and abd. and flushing
[2]; Rowinsky et al, Cervix Ca, 32 pts
  partial responses (PR): 1 PR
[2]; Rowinsky et al, Colon Cancer, 32 pts
  partial responses (PR): 1 PR
[3]
  dependence of tumor sensitivity on ability to produce HECPT: independent of their ability to produce HECPT
[4]
  plasma concentration of HECPT after CPT-11 compared to after HECPT: maintained longer after CPT-11 administration than after treatment with HECPT
[5]; Fukuoka et al, untreated non small cell lung cancer, 100 mg/m^2
  partial responses: 23/72
[5]; [10]
  Response Rate: 47%
  partial responses: 7/15
[5]; [11]
  Response Rate: 33.3%
  complete responses: 2 CRs
  partial responses: 7 PRs
[5]; Negoro et al, small cell lung cancer
  N/V: 61.5%
[5]; Ohno et al, 62 pts
  Gastrointestinal toxicity: 76%
  Reported Toxicities: Thrombocytopenia
[5]; Ohno et al, leukemia/lymphoma, 20 mg/m^2 bid x7
  Response Rate: 25 % RR
[5]; Ohno et al, leukemia/lymphoma, 40 mg/m^2 Q0x5
  partial response rate: 34 % PR
[5]; Ohno et al, leukemia/lymphoma, 200 mg Q3
  Response: No resp.
[5]; Shimada et al, 17 pts
  N/V: 35%
[5]; [12]
  Response Rate: 46%
  partial responses: 6/17
[5]; [13]
  Response Rate (RR): 23.6%
  complete responses: SCR
  partial responses: 8 PR
[5]; Takeuchi et al, cervical cancer
  N/V: 51%
[5]; in vivo
  Alopecia: 38.1%
  Diarrhea: 39.1%
  alopecia: 40.0%
  pneumonitis: 12.5
[6]; 5-day continuous intravenous infusion
  conversion of CPT-11 to HECPT: saturable process
[7]; single dose I.V., 50 mg/m^2
  Fractional amount of lactone species, CpMax based: 0.51
[7]; single dose I.V., 80 mg/m^2
  Fractional amount of lactone species, CpMax based: 0.44
[7]; single dose I.V., 100 mg/m^2
  Fractional amount of lactone species, CpMax based: 0.53
[7]; single dose I.V., 125 mg/m^2
  Fractional amount of lactone species, CpMax based: 0.55
[7]; single dose I.V., 150 mg/m^2
  Fractional amount of lactone species, CpMax based: 0.42
[7]; single dose I.V., 180 mg/m^2
  Fractional amount of lactone species, CpMax based: 0.42
[7]; single dose I.V.
  overall fractional concentration of the lactone species over dose range: fairly constant

## COc1cc([C@@H]2c3cc4c(cc3[C@@H](O[C@@H]3O[C@@H]5CO[C@@H](C)O[C@H]5[C@H](O)[C@H]3O)[C@H]3COC(=O)[C@H]23)OCO4)cc(OC)c1O [etoposide]
[8]
  bioavailability following oral administration relative to intravenous: substantially equivalent

## CCc1c2c(nc3ccc(O)cc13)-c1cc3c(c(=O)n1C2)COC(=O)[C@]3(O)CC [HECPT, 10-hydroxy 7-ethyl camptothecin]
LD1210 leukemia
  T/C (treated/control) ratios: inferior to that of CPT-11 administration under the same conditions
[9]
  greater inhibitory activity than CPT-11 against topoisomerase I: 3600 fold
MOLT3 cells
  more potent than CPT-11 in generating single-strand DNA breaks: approximately 1000 fold
P388 tumor
  anti-tumor activity compared to CPT-11: little anti-tumor activity compared to CPT-11
[6]; human subjects
  correlation of HECPT pharmacokinetics with dose or of CPT-11 pharmacokinetics with toxicity: lack of correlation
[7]; in vivo, iv
  overall fractional concentration of the lactone species over dose range: fairly constant

## CCc1c2c(nc3ccccc13)-c1cc3c(c(=O)n1C2)COC(=O)[C@]3(O)CC [ECPT, 7-ethyl camptothecin]
LD1210 leukemia
  T/C (treated/control) ratios: inferior to that of CPT-11 administration under the same conditions
